Assay results taken from patent publication US8680142B2, “Ascorbate, vitamin K3 and hydroxytolans in the treatment of cancer” (Kent State University, priority 2007, dated 2014).
Read-outs that look alike come from different tables or passages of the source.

Assays:
[1] = test system: T24 Human Bladder Cancer Cells; test: MTT cytotoxicity assay against T24 cells; assay type: cell-based; details: for IC50: Homo sapiens; for increase of cytotoxic potency in the combination over compound alone: VC/HT-1 200:1 after VC+VK3 pretreatment
Procedure: After 1 or 2 days of incubation at 37° C. in humidified CO2 in air, a colorimetric MTT assay (see below) was performed to evaluate the number of remaining viable T24 cells in each well.
The hydroxytolan HT-1 was dissolved in DMSO as 2 mM stock and was then subsequently diluted in MEM so that the final DMSO concentration in any well was <1%. Doubling dilutions of this stock solution were carried out as above.
This assay measures the formation of a colored product produced from a chromogenic substrate, the tetrazole 3-[4,5-dimethylthiazol-2-yl]-2,5 diphenyltetrazolium bromide (“MTT”). The yellow MTT is reduced to purple formazan in the mitochondria of living cells. A solubilization solution (typically dimethyl sulfoxide or sodium dodecyl sulfate (SDS) in dilute hydrochloric acid) is added to dissolve the insoluble purple formazan product into a colored solution. The absorbance of this colored solution is quantified by measuring at a certain wavelength (usually between 500 and 600 nm) by a spectrophotometer. […] This MTT assay is used widely to assess the cytotoxicity and selectivity of compounds such as anti-cancer drugs. The assay is suitable for rapid toxicity characterization of a test agent such as a drug formulation.
A lower CD50 indicates a greater cytotoxic activity (as a lower amount of the agent is needed to achieve a fixed level of cytotoxicity). Two agents can be compared by examining the fold-increase or decrease in their CD50 values.
The CD50 values were interpolated from the curves generated using 12 serial dilutions. When individual compounds were used a single CD50 value is shown. When a combination of two compounds was used, the CD50 of both compounds is presented. Values shown are the mean±standard error of three experiments with six readings per experiment.

terminal cancer patients = details: cited from earlier work
[2] = test system: patients with advanced cancer; details: 10 g oral VC; double-blind, placebo-controlled; cited from earlier work
Mice = details: daily 6.5 g/Kg for 6 weeks and 2 g/Kg for 2 years; cited from earlier work
hepatoma = details: 10 mg/2 mL i.p. weekly for 4 weeks, cited from earlier work
tumor growth = details: cited from earlier work
[3] = test system: advanced lung cancer patients; details: VK3 with mitomycin C, cited from earlier work
[4] = test system: gastrointestinal cancer patients; details: 43 patients; VK3 with mitomycin C; cited from earlier work
livers of nude mice = details: appreciably larger doses of VK3; cited from earlier work
[5] = cited from earlier work
humans = details: cited from earlier work
normal cells = details: cited from earlier work
[6] = T-24, 24 h, incubation time 1 day, compound alone, read-out: CD50 of compounds tested Individually
[7] = T-24, 48 h, incubation time 2 days, compound alone, read-out: CD50 of compounds tested Individually
[8] = T-24, read-out: CD50 of each compound tested in combination after pretreatment with VC and VK3, incubation time 1 day, VC:HT-1 200:1 mixture, 2 h pretreatment with 150 μM VC and 1.5 μM VK3
[9] = T-24, read-out: CD50 of each compound tested in combination after pretreatment with VC and VK3, incubation time 2 days, VC:HT-1 200:1 mixture, 2 h pretreatment with 150 μM VC and 1.5 μM VK3

Work on `Oc1ccc(C#Cc2ccc(O)cc2)cc1` [HT-1, 4,4′-dihydroxytolan] yielded an IC50 [1, 6] of 21.5 µM, an IC50 [1, 7] of 10.5 ± 2.7 µM and an IC50 [1, 8] of 1.13 µM. For the same compound, the IC50 [1, 9] was 0.94 ± 0.55 µM, the “increase of cytotoxic potency in the combination over compound alone” value ([1]; after 1 day) was “about 19 fold” and the “increase of cytotoxic potency in the combination over compound alone” value ([1]; after 2 days) was “about 11 fold”.
Work on `O=C1O[C@H]([C@@H](O)CO)C([O-])=C1O.[Na+]` [VC, sodium ascorbate] yielded an IC50 [1, 6] of 849 µM, an IC50 [1, 7] of 896 ± 59.8 µM and an IC50 [1, 8] of 226 µM. For the same compound, the IC50 [1, 9] was 187 ± 99 µM, the “mean survival time (MST)” value (terminal cancer patients; 100 terminal cancer patients, 10 g/day i.v. for 10 days, then 10 g/day orally, controls 50 days) was over 210 days and the “MST, ovarian cancer subjects” value (terminal cancer patients; six treated subjects with ovarian cancer, controls 71 days) was 148 days. The “effectiveness of oral VC” value [2] was “no benefits” and the “mortality, weight changes, blood chemistry, hematology, histology, other pathologies” value (Mice) was “no abnormal rates”.
In the case of `CC1=CC(=O)c2ccccc2C1=O` [VK3, 2-methyl-1,4-naphthoquinone], the long term survivors (hepatoma) is listed as 5 out of 16, the survival (hepatoma; controls 17 days) is listed as 60 days and the “inhibition of tumor growth” value (tumor growth; VK3 225 mg/kg/day with methotrexate) is listed as 84%. For the same compound, the “inhibition of tumor growth” value (tumor growth; menadione 250 mg/kg/day with methotrexate 0.75 mg/kg/day) was 99%, the median survival ([3]; 23 patients) was 5.5 months and the “patients with hematologic toxicity” value [3] was 30%. The “patients with some tumor regression” value [3] was 26%, the objective response [4] was “no objective response” and the hepatotoxicity (livers of nude mice) was “no hepatotoxicity”. For the same compound, the water solubility ([5]; bisulfate form) was “water soluble”, the maximum tolerated dose (humans; 48-hour i.v. infusion, followed by mitomycin C every four weeks) was 2.5 g/m^2 and the toxicity (humans; 400-500 mg/day over 3-5 consecutive days) was “without any appreciable toxicity”. For the same compound, the hemolysis (humans; VK3 2.5 g/m^2 then mitomycin C 15 mg/m2 every four weeks) was “no hemolysis”.
For `Oc1ccc(/C=C/c2cc(O)cc(O)c2)cc1` [resveratrol, 3,5,4′-trihydroxy-trans-stilbene], the aqueous solubility [5] is listed as “relatively low aqueous solubility” and the “toxicity to normal cells” value (normal cells) is listed as “significantly toxic to normal cells”.
